Measured values reported in US9649313B2, “Use of ITK inhibitors for the treatment of cancer” (The University of North Carolina at Chapel Hill, priority 2012, dated 2017).
pIC50: −log10 of the molar value.

Tests used:
PMWK (ITKLO) cell line = experiment: soft agar assay (anchorage independent growth); assay type: cell-based, Human
Experimental: (§1) FIG. 5A-5C. Effects of BI 10N inhibitor on proliferation and motility of melanoma cells. FIG. 5A) Cell motility assays were performed as described in FIG. 4A-4E; however, the inhibitor BI 10N was added to the media to decrease ITK kinase activity in parental cell lines instead of using the shRNA ITK knockdown cell lines. BI 10N was added to the media 24 hours prior to the start of the motility assay and the VivaView camera system was used to image cellular motility of the melanoma cells as described previously. FIG. 5B) The proliferation assays were completed as described in FIG. 4A-4E, substituting the BI 10N compound for the shRNA. Cells were trypsinized and counted using the Invitrogen Countess. Fifty thousand cells were placed into each well of a 6 well plate and BI 10N was added to the indicated concentrations. The cells were counted with the Invitrogen Countess at 3, 5, and 6 or 7 days after plating to assess the proliferation rates of the different cell lines in the presence of BI 10N. FIG. 5C) Both ITKHI (RPMI 8322) and ITKLO (PMWK) melanoma cell lines were grown in the presence of BI 10N (10-200 nM) in soft agar. In 24-well cell culture plates 2,500 cells per well were added to a 1.4% agarose solution. The agarose and cell solution was then poured on top of a solidified base agar. The cells were incubated at 37° C. for three to four weeks to ensure adequate growth before analysis. FIG. 5D) Cell cycle analysis of PMWK, VMM 39, and RPMI 8322 cells that have been treated with increasing concentrations of BI 10N. Following 3 days of BI 10N treatment, the cells were incubated with EdU for 3 hours and were subsequently assessed for 5-ethynyl-2′-deoxyuridine (EdU) incorporation rate and DNA content with FxCycle Violet. Shown in this panel are the percentages of cells in G0/G1 (low DNA and EdU content), S (high EdU and low-to-medium DNA content), and G2/M (Low EdU and high DNA content)
(§2) Soft agar assays were performed employing the RPMI 8322, VMM 39, PMWK, and A375 cell lines. In 24-well cell culture plates (BD Falcon), a 2.0% base agar solution in the appropriate cell line media was poured and allowed to solidify. Tissue culture cells were then trypsinized from their flask, counted using the Countess® Automated Cell Counter, and 2,500 cells per well were added to a 1.4% agarose solution then poured on top of the solidified base agar. Each of the […] layers in the culture plate wells contained BI 10N in the indicated concentrations. The cells were incubated at 37° C. for three to four weeks to ensure adequate growth. 3-(4,5-dimethylthiazol-2-yl)-2,5-diphenyltetrazolium bromide (MTT) was then added in order to perform colony counts using Image J photo processing software.

[1] = tested on: RPMI 8322 (ITKHI) cell line; experiment: soft agar assay (anchorage independent growth); assay type: cell-based, Human
Experimental: as §1, §2

[2] = tested on: PMWK (ITKLO) melanoma cell line; experiment: single cell motility assay; assay type: cell-based, Human
Source text: (§3) FIG. 4A-4E. Effects of ITK knockdown on proliferation and motility of melanoma cells. FIG. 4A) Western of lysates of VMM 39 containing each of the four shRNA constructs using rabbit monoclonal anti ITK (Y401). FIG. 4B) The four shRNA lentiviral constructs were used to transduce three melanoma cell lines, PMWK (ITKLO), VMM 39 (ITKHI), and RPMI 8322 (ITKHI). 50,000 cells were placed into each well of a 6 well plate, which was then counted 3, 5, and 6, or 7 days after plating to assess the proliferation rates of the different cell lines. FIG. 4C) Single Cell Motility assays were performed on three different melanoma cell lines, PMWK, VMM 39, and RPMI 8322. Each melanoma cell line was transduced with the four shRNA lentiviral constructs producing a total of 12 cell lines. 10,000 cells were plated on fibronectin coated glass bottom dishes. Pictures were taken once every 40 minutes for 16 hours. FIG. 4D) Cell cycle analysis of PMWK, VMM 39, and RPMI 8322 cells that have been transduced with various shRNAs. Cells were harvested after 3 hours of incubation with 5-ethynyl-2′-deoxyuridine (EdU). EdU incorporation and DNA content with FxCycle Violet were analyzed using flow cytometry. Illustrated in this panel are the percentages of cells in G0/G1 (low DNA and EdU content), S (high EdU and low-to-medium DNA content), and G2/M (Low EdU and high DNA content). FIG. 4E) Single-cell motility analysis of PMWK, VMM 39, and RPMI 8322 that have been transduced with various shRNAs. At least 50 cells were tracked for each cell line and the average motility rate was determined. Shown with asterisks are the shRNA-transduced melanoma cell lines with significant impairment in motility (P<0.001 one-way ANOVA following Bonferroni adjustments for multiple comparisons).
(§4) FIG. 5A-5C. Effects of BI 10N inhibitor on proliferation and motility of melanoma cells. FIG. 5A) Cell motility assays were performed as described in FIG. 4A-4E; however, the inhibitor BI 10N was added to the media to decrease ITK kinase activity in parental cell lines instead of using the shRNA ITK knockdown cell lines. BI 10N was added to the media 24 hours prior to the start of the motility assay and the VivaView camera system was used to image cellular motility of the melanoma cells as described previously. […] Cells were trypsinized and counted using the Invitrogen Countess. […] The cells were counted with the Invitrogen Countess at 3, 5, and 6 or 7 days after plating to assess the proliferation rates of the different cell lines in the presence of BI 10N. […] Following 3 days of BI 10N treatment, the cells were incubated with EdU for 3 hours and were subsequently assessed for 5-ethynyl-2′-deoxyuridine (EdU) incorporation rate and DNA content with FxCycle Violet. […]

[3] = tested on: RPMI 8322 (ITKHI) melanoma cell line; experiment: single cell motility assay; assay type: cell-based, Human; conditions: 10-25 nM
Source text: as §3, §4

[4] = tested on: VMM 39 (ITKHI) melanoma cell line; experiment: single cell motility assay; assay type: cell-based, Human; conditions: VMM39; 10-25 nM
Source text: as §3, §4

PMWK (ITKLO) cells = experiment: cell cycle analysis (EdU, FxCycle Violet); assay type: cell-based, Human; conditions: 3 days of treatment
Experimental: as §1
(§5) Melanoma cells were grown to approximately 60% confluence in T25 tissue culture flasks (Corning Product #430639). […]

RPMI 8322 (ITKHI) cells = experiment: cell cycle analysis (EdU, FxCycle Violet); assay type: cell-based, Human; conditions: 3 days of treatment, dose-dependent
Experimental: as §1, §5

VMM 39 (ITKHI) cells = experiment: cell cycle analysis (EdU, FxCycle Violet); assay type: cell-based, Human; conditions: 3 days of treatment, dose-dependent
Experimental: as §1, §5

TRKA = biological target: T1, TRKA (Homo sapiens, UniProt P04629); experiment: cell-free kinase assay; assay type: biochemical
T1 construct: purchased Carna Biosciences
T1 sequence (P04629 33-796): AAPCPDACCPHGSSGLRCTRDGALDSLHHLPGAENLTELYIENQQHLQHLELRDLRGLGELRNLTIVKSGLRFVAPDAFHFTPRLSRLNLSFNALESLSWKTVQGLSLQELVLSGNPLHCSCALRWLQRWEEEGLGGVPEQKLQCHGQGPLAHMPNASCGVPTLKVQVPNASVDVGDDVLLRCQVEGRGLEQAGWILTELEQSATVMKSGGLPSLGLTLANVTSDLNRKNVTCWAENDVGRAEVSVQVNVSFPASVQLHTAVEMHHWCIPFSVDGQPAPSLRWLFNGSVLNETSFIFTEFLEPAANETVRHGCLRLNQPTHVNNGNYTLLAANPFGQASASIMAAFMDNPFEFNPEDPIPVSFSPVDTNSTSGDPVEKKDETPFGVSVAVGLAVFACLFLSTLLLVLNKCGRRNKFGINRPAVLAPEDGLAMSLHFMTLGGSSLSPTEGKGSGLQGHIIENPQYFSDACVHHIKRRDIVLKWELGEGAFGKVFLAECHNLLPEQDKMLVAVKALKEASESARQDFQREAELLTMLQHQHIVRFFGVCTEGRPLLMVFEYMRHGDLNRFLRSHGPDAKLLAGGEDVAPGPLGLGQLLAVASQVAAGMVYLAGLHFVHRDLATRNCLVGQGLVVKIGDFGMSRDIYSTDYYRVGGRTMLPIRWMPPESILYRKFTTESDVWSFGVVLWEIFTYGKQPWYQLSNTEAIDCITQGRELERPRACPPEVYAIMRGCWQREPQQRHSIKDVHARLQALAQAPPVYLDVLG
Source text: (§6) We investigated the potency and selectivity of BI 10N against 56 kinases using a cell-free assay (Table 8A). […] The selectivity of this inhibitor was investigated by testing the potency of the inhibitor at two concentrations with 53 kinases by Carna Biosciences (MA) (Table 2).

TRKC = biological target: T2, TRKC (Homo sapiens, UniProt Q16288); experiment: cell-free kinase assay; assay type: biochemical
T2 construct: purchased Carna Biosciences
T2 sequence (Q16288 32-839): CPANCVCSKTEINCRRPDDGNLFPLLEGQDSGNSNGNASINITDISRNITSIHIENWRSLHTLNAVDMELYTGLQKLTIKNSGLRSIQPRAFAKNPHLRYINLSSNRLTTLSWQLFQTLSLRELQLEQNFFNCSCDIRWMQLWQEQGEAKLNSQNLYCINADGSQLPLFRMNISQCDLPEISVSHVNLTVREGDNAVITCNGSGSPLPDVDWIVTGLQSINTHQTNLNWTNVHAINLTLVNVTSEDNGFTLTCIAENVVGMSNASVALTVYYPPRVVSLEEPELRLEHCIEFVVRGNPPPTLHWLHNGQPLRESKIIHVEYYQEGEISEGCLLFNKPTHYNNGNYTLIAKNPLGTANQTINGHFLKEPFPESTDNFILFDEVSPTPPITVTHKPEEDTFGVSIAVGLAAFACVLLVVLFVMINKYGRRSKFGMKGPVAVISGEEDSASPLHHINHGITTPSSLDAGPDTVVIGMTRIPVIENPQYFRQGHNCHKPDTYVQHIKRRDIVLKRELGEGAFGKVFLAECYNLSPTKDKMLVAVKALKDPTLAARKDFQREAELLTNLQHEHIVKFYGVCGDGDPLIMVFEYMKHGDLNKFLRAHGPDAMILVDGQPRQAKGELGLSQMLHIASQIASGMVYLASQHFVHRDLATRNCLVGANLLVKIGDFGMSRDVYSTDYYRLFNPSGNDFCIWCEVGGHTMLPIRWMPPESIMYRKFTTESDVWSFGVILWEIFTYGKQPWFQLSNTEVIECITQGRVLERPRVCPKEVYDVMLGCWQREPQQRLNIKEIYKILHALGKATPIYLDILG
Source text: as §6

[5] = Homo sapiens, 672 h, three to four weeks, read-out: amount needed to decrease the number of colonies formed by 50%

- selectivity for ITK over TRKA (TRKA): about 10 fold
- mode of inhibition (TRKA; TRKA): time-dependent inhibitor
- pIC50 (TRKA; TRKA, 1 mM ATP, Km ATP 65 μM): 9.08
- pIC50 (TRKA; TRKA, ATP at approximately the Km for ATP, more potent than can be measured): > 9.30
- pIC50 (TRKA; TRKA, Table 2, by Carna Biosciences): 9.34
- inhibition at 0.2 µM (TRKA; TRKA, single inhibitor concentration): 106%
- pIC50 (TRKC): 8.80
- selectivity for ITK over TRKC (TRKC): about 10 fold
Structure (SMILES): CC(C)C(C)CNCc1ccc2c(c1)[nH]/c(=N\C(=O)c1ccc(C3=CN=NC3)s1)n2CC(C)(C)O (stereo not shown) [BI 10N]
- anchorage-independent growth (PMWK (ITKLO) cell line): strongly decreased
- pIC50 (PMWK (ITKLO) cell line; [5]): 7.60
- anchorage-independent growth [1]: strongly decreased
- pIC50 [1, 5]: 7.30
- concentration required for smaller changes in migration [2]: ≥ 150 nM
- effect on migration ([2]; 10-25 nM): do not decrease
- decrease in migration [3]: about 50%
- decrease in migration [4]: about 50%
- cell cycle profile (PMWK (ITKLO) cells): No cell cycle changes
- cell cycle profile (RPMI 8322 (ITKHI) cells): increased the percentage of cells in the G0/G1 phase and decreased the percentage of cells in the S phase
- cell cycle profile (VMM 39 (ITKHI) cells): increased the percentage of cells in the G0/G1 phase and decreased the percentage of cells in the S phase
